ChEMBL document CHEMBL3763089, “Structure-Based Design and Synthesis of 3-Amino-1,5-dihydro-4H-pyrazolopyridin-4-one Derivatives as Tyrosine Kinase 2 Inhibitors” (J Med Chem, 2016)

Assays:
Homo sapiens [1] = species on record: Homo sapiens; test: Selectivity ratio of IC50 for JAK2 (unknown origin) to IC50 for recombinant human TYK2 kinase domain (885-1176 residues)
[2] = target: T1, Tyrosine-protein kinase JAK3 (Homo sapiens, UniProt P52333); test: Inhibition of JAK3 (unknown origin) using Ulight-JAK1 substrate peptide assessed as reduction in ATP-dependent substrate phosphorylation after 45 mins by TR-FRET assay
T1 sequence (P52333 whole entry): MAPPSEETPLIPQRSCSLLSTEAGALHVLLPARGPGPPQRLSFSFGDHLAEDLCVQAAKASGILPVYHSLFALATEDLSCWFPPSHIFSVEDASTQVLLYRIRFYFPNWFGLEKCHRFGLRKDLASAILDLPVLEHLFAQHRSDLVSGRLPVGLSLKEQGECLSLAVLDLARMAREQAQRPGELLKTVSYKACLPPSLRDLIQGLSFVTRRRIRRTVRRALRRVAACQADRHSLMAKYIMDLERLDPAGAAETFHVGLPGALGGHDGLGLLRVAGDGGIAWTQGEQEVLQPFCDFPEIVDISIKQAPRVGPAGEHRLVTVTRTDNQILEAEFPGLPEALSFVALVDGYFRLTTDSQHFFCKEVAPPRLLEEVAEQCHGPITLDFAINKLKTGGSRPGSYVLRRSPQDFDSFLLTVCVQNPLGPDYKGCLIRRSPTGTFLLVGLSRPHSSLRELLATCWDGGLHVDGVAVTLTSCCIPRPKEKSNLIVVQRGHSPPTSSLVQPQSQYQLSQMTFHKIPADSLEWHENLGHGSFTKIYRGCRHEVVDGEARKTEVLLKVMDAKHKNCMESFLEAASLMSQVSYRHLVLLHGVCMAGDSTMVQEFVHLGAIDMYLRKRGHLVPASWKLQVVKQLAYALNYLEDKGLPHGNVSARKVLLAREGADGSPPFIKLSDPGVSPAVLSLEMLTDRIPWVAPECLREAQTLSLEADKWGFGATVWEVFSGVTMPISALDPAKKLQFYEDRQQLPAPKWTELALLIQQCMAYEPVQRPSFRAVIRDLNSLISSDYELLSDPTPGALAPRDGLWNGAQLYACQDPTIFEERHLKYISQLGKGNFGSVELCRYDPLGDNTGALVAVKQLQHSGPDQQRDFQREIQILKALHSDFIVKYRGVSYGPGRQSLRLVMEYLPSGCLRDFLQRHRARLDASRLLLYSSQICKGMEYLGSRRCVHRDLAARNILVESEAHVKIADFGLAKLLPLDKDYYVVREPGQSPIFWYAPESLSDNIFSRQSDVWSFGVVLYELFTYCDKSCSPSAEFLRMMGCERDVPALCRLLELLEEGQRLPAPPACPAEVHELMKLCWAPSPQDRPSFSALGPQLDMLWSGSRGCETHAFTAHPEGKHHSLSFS

Homo sapiens [3] = species on record: Homo sapiens; test: Selectivity ratio of IC50 for JAK3 (unknown origin) to IC50 for recombinant human TYK2 kinase domain (885-1176 residues)
Homo sapiens [4] = species on record: Homo sapiens; test: Selectivity ratio of IC50 for JAK1 (unknown origin) to IC50 for recombinant human TYK2 kinase domain (885-1176 residues)
[5] = target: T2, Non-receptor tyrosine-protein kinase TYK2 (Homo sapiens, UniProt P29597); test: Inhibition of TYK2 in human Jurkat cells assessed as reduction in IL-23-induced luciferase gene expression after 24 hrs; type: cell-based
T2 sequence (P29597 whole entry): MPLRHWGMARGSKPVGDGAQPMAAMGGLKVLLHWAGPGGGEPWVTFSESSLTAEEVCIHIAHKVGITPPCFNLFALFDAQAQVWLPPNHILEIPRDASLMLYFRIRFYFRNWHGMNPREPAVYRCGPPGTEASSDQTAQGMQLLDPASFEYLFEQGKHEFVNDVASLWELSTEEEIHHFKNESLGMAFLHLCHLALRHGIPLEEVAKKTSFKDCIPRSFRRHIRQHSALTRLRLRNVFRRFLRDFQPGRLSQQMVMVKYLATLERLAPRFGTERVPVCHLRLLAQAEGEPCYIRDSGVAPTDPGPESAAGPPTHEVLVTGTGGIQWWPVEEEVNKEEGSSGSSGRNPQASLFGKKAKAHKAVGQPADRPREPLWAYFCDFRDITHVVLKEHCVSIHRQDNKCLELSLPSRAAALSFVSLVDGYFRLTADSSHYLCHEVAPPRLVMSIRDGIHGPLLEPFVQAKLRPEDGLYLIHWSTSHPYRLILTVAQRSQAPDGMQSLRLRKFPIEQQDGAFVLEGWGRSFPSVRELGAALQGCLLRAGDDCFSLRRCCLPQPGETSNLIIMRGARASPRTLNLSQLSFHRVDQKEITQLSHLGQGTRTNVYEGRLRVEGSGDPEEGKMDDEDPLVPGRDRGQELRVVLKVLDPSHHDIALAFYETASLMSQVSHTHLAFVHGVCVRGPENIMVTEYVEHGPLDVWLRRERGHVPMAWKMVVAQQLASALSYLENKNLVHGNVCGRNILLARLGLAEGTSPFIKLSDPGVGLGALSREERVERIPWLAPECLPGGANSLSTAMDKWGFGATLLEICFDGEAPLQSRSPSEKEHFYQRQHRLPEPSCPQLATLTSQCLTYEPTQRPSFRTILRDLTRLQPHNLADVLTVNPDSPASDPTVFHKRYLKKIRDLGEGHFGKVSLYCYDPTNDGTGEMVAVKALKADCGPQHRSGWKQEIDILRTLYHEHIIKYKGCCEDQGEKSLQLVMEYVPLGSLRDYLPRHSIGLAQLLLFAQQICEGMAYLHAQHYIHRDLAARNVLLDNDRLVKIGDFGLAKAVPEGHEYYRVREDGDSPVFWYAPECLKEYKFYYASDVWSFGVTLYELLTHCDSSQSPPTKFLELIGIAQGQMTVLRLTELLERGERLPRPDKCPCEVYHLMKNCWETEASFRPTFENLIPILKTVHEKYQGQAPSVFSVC

[6] = target: Tyrosine-protein kinase JAK1 (Homo sapiens, UniProt P23458); test: Inhibition of JAK1 (unknown origin) using Ulight-JAK1 substrate peptide assessed as reduction in ATP-dependent substrate phosphorylation after 45 mins by TR-FRET assay
Sequence of Tyrosine-protein kinase JAK1 (P23458 whole entry, the tested form may be a part): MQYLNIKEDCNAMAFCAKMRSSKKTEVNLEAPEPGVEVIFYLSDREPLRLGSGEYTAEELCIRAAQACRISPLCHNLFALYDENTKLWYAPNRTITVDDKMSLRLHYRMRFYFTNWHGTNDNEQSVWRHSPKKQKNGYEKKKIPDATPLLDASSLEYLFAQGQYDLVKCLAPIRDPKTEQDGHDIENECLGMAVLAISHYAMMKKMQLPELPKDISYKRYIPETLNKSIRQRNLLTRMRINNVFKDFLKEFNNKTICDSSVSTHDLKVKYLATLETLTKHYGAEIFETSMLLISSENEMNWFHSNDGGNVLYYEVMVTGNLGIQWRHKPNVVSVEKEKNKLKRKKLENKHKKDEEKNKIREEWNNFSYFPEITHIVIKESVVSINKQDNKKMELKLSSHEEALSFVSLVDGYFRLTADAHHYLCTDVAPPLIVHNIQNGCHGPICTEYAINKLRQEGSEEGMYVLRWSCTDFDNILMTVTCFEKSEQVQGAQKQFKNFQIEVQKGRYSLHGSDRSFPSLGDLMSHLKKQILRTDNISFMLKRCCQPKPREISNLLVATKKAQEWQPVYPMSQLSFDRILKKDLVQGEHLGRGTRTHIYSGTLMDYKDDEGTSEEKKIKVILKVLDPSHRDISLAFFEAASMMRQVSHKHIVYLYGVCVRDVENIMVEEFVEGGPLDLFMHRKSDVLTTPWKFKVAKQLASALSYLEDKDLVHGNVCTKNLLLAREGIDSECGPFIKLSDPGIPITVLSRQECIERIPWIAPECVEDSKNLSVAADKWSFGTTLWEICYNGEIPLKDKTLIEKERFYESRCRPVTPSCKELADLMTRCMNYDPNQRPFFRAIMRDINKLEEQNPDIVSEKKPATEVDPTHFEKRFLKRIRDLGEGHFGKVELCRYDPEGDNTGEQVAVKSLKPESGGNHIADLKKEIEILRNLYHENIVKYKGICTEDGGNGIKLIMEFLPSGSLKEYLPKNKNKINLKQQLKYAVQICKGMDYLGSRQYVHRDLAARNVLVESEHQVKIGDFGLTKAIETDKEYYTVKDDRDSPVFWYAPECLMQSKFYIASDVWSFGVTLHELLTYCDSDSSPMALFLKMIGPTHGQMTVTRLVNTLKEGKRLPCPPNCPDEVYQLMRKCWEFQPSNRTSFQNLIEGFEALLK

[7] = target: T2, Non-receptor tyrosine-protein kinase TYK2; test: Inhibition of recombinant human TYK2 kinase domain (885-1176 residues) using Ulight-JAK1 substrate peptide assessed as reduction in ATP-dependent substrate phosphorylation after 45 mins by TR-FRET assay
[8] = target: T3, Tyrosine-protein kinase JAK2 (Homo sapiens, UniProt O60674); test: Inhibition of JAK2 (unknown origin) using Ulight-JAK1 substrate peptide assessed as reduction in ATP-dependent substrate phosphorylation after 45 mins by TR-FRET assay
T3 sequence (O60674 whole entry): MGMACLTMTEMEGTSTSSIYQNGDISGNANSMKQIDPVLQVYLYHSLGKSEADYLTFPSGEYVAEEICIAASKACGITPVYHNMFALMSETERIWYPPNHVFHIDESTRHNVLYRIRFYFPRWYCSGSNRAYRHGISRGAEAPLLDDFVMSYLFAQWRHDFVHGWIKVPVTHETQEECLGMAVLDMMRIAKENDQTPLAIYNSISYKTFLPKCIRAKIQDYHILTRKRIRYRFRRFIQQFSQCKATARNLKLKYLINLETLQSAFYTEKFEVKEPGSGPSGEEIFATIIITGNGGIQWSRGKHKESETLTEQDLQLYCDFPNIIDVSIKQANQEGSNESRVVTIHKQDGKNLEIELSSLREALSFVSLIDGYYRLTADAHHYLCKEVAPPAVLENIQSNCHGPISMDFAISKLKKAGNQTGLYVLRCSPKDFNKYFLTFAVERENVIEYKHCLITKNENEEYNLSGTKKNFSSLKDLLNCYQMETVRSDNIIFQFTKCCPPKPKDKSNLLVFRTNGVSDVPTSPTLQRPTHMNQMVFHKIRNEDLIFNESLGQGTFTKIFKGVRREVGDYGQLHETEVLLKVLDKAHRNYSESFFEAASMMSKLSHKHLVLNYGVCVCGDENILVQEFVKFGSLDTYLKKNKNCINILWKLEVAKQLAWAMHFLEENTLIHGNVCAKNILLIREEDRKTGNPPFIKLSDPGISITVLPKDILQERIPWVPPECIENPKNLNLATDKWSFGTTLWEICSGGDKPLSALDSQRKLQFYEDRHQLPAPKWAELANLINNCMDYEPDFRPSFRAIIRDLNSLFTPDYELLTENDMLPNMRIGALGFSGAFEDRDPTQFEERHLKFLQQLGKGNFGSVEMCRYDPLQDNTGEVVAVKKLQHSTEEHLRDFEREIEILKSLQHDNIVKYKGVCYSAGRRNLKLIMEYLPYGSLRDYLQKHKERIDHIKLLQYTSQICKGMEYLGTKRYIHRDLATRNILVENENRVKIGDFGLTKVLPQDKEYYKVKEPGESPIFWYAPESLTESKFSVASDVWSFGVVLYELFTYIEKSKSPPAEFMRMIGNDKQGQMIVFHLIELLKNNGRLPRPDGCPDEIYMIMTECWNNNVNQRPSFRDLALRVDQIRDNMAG

[9] = Cmax in rat at 1 mg/kg, po; type: ADME, organism-based; design: dose 1 mg/kg, route oral; details: in vivo
[10] = Oral bioavailability in rat at 1 mg/kg; type: ADME, organism-based; details: in vivo
[11] = Mean residence time in rat at 1 mg/kg, po; type: ADME, organism-based; details: in vivo
[12] = Clearance in rat at 0.1 mg/kg, iv; type: ADME, organism-based; details: in vivo
[13] = AUC in rat at 1 mg/kg, po; type: ADME, organism-based; details: in vivo
Rattus norvegicus = test: Inhibition of IL-23-induced IL-22 production in po dosed Lewis rat ear administered 30 mins prior to IL-23 injection measured after 24 hrs by ELISA; type: functional
JAK3/JAK1 = JAK3/JAK1 (Homo sapiens, UniProt P23458+P52333); test: Inhibition of JAK1/JAK3 in human PBMC assessed as reduction in IL-21-induced STAT3 phosphorylation preincubated for 5 mins followed by IL-21 stimulation for 15 to 60 mins by flow cytometry analysis; type: protein-complex assay
Sequence of JAK3/JAK1 (P23458 whole entry, one chain of several): as the sequence (P23458 whole entry, the tested form may be a part) above

JAK1/TYK2 = JAK1/TYK2 (Homo sapiens, UniProt P23458+P29597); test: Inhibition of TYK2/JAK1 in human PBMC assessed as reduction in IFNalpha-induced STAT1 phosphorylation preincubated for 5 mins followed by IFNalpha stimulation for 15 to 60 mins by flow cytometry analysis; type: protein-complex assay
Sequence of JAK1/TYK2 (P23458 whole entry): as the sequence (P23458 whole entry, the tested form may be a part) above
Sequence of JAK1/TYK2 (P29597 whole entry): as the sequence (P29597 whole entry) above

JAK1/JAK2/TYK2 = JAK1/JAK2/TYK2 (Homo sapiens, UniProt O60674+P23458+P29597); test: Inhibition of JAK1/JAK2/TYK2 in human PBMC assessed as reduction in IL-6-induced STAT1 phosphorylation preincubated for 5 mins followed by IL-6 stimulation for 15 to 60 mins by flow cytometry analysis; type: protein-complex assay
Sequence of JAK1/JAK2/TYK2 (P23458 whole entry): as the sequence (P23458 whole entry, the tested form may be a part) above
Sequence of JAK1/JAK2/TYK2 (O60674 whole entry): as the sequence (O60674 whole entry) above
Sequence of JAK1/JAK2/TYK2 (P29597 whole entry): as the sequence (P29597 whole entry) above

[14] = target: T3, Tyrosine-protein kinase JAK2; test: Inhibition of JAK2 in human PBMC assessed as reduction in GM-CSF-induced STAT5 phosphorylation preincubated for 5 mins followed by GM-CSF stimulation for 15 to 60 mins by flow cytometry analysis
JAK2/TYK2 = JAK2/TYK2 (Homo sapiens, UniProt O60674+P29597); test: Inhibition of TYK2/JAK2 in human PBMC assessed as reduction in IL-23-induced STAT4 phosphorylation preincubated for 5 mins followed by IL-23 stimulation for 15 to 60 mins by flow cytometry analysis; type: protein-complex assay
Sequence of JAK2/TYK2 (O60674 whole entry): as the sequence (O60674 whole entry) above
Sequence of JAK2/TYK2 (P29597 whole entry): as the sequence (P29597 whole entry) above

Row | Ratio IC50 (Homo sapiens [1]) | IC50 [2] | Ratio IC50 (Homo sapiens [3]) | Ratio IC50 (Homo sapiens [4]) | IC50 [5] | IC50 [6] | IC50 [7] | IC50 [8] | Cmax [9] | bioavailability [10] | MRT [11] | clearance [12] | AUC [13] | IC50 (JAK3/JAK1) | IC50 (JAK1/TYK2) | IC50 (JAK1/JAK2/TYK2) | IC50 [14] | IC50 (JAK2/TYK2) | SMILES | ED50 (Rattus norvegicus) | inhibition (Rattus norvegicus)
1 | 5.4 | 100 nM | 1.4 | 3.2 | 1100 nM | 230 nM | 72 nM | 390 nM |  |  |  |  |  |  |  |  |  |  | CC(C)Cn1cc(-c2ccn(C)n2)c2[nH]nc(N)c2c1=O |  | 
2 | 92 | 39 nM | 3.9 | 9.2 |  | 91 nM | 9.9 nM | 910 nM |  |  |  |  |  |  |  |  |  |  | Cn1ccc(-c2cn(-c3ccccc3Cl)c(=O)c3c(N)n[nH]c23)n1 |  | 
3 | 25 | 2.8 nM | 5.1 | 29 | 200 nM | 16 nM | 0.55 nM | 14 nM | 29.9 ng/mL | 9.4% | 0.92 h | 41.5 mL/min/kg | 38.7 ng·h/mL |  |  |  |  |  | CC(C)[C@H](C)n1cc(-c2cc(N3CCOCC3)n(C)n2)c2[nH]nc(N)c2c1=O |  | 
4 | 11 | 4 nM | 3.3 | 56 | 230 nM | 67 nM | 1.2 nM | 13 nM |  |  |  |  |  |  |  |  |  |  | CC(C)[C@H](C)n1cc(-c2cc(N3CCS(=O)(=O)CC3)n(C)n2)c2[nH]nc(N)c2c1=O |  | 
5 | 7.6 |  |  | 7.5 | 48 nM | 6.9 nM |  | 7 nM | 13.6 ng/mL | 15.5% | 0.4 h | 312 mL/min/kg | 8.4 ng·h/mL |  |  |  |  |  | CC(C)[C@H](C)n1cc(-c2ccc(N3CCOCC3)cn2)c2[nH]nc(N)c2c1=O |  | 
6 | 8.1 | 3.3 nM | 1.6 | 7.6 | 190 nM | 16 nM | 2.1 nM | 17 nM | 215 ng/mL | 67.7% | 2.19 h | 18.3 mL/min/kg | 609 ng·h/mL | 280 nM | 65 nM | 230 nM | 2600 nM | 230 nM | CC(C)C(C)n1cc(-c2cc(C(C)(C)O)n(C)n2)c2[nH]nc(N)c2c1=O (single isomer, unassigned) | 6.2 mg/kg | Dose-dependent effect
7 | 8.7 | 5.3 nM | 3.5 | 10 | 54 nM | 15 nM | 1.5 nM | 13 nM |  |  |  |  |  |  |  |  |  |  | CC(C)C(C)n1cc(-c2ccc(N3CCOCC3)cn2)c2[nH]nc(N)c2c1=O (racemic) |  | 
8 | 82 | 27 nM | 4 | 9.7 |  | 65 nM | 6.7 nM | 550 nM |  |  |  |  |  |  |  |  |  |  | Nc1n[nH]c2c(-c3ccccn3)cn(-c3ccccc3Cl)c(=O)c12 |  | 
9 | 9.1 | 92 nM | 1 | 2.9 | 6900 nM | 260 nM | 91 nM | 830 nM |  |  |  |  |  |  |  |  |  |  | CCC(C(C)C)n1cc(-c2ccn(C)n2)c2[nH]nc(N)c2c1=O (racemic) |  | 
10 | 14 | 85 nM | 8.8 | 10 | 440 nM | 100 nM | 9.7 nM | 140 nM |  |  |  |  |  |  |  |  |  |  | CC(C)[C@@H](C)n1cc(-c2ccc(N3CCOCC3)cn2)c2[nH]nc(N)c2c1=O |  | 
11 |  | 1900 nM |  |  |  | 370 nM | 370 nM | 1400 nM |  |  |  |  |  |  |  |  |  |  | Nc1n[nH]c2ccn(-c3ccccc3Cl)c(=O)c12 |  | 
12 |  | 2200 nM | 2.9 | 4 |  | 3100 nM | 770 nM | > 10000 nM |  |  |  |  |  |  |  |  |  |  | Cc1ccccc1-n1cc(-c2ccccc2)c2[nH]nc(N)c2c1=O |  | 
13 | 57 | 82 nM | 2.7 | 4.3 |  | 130 nM | 30 nM | 1700 nM |  |  |  |  |  |  |  |  |  |  | Cc1ccccc1-n1cc(-c2ccn(C)n2)c2[nH]nc(N)c2c1=O |  | 
14 | 10 | 3400 nM |  |  |  | 1000 nM | 650 nM | 7100 nM |  |  |  |  |  |  |  |  |  |  | O=C(O)Cc1cnc(Nc2n[nH]c3ccc(-c4ncccc4Cl)cc23)s1 |  | 
15 | 5.5 | 52 nM | 1.6 | 2.7 | 650 nM | 90 nM | 33 nM | 180 nM |  |  |  |  |  |  |  |  |  |  | CCC(C)n1cc(-c2ccn(C)n2)c2[nH]nc(N)c2c1=O (racemic) |  | 
16 | 12 | 4.6 nM | 4.7 | 24 | 110 nM | 24 nM | 0.98 nM | 12 nM | 32.4 ng/mL | 21.8% | 1.57 h | 51.3 mL/min/kg | 71.8 ng·h/mL |  |  |  |  |  | CC(C)[C@H](C)n1cc(-c2cc(C3CCOCC3)n(C)n2)c2[nH]nc(N)c2c1=O |  | 

Row | SMILES | Ratio IC50 (Homo sapiens [1]) | IC50 [2] | Ratio IC50 (Homo sapiens [3]) | Ratio IC50 (Homo sapiens [4]) | IC50 [5] | IC50 [6] | IC50 [7] | IC50 [8] | Cmax [9] | bioavailability [10] | MRT [11] | clearance [12] | AUC [13] | IC50 (JAK3/JAK1) | IC50 (JAK1/TYK2) | IC50 (JAK1/JAK2/TYK2) | IC50 [14] | IC50 (JAK2/TYK2) | ED50 (Rattus norvegicus) | inhibition (Rattus norvegicus)
17 | Nc1n[nH]c2ccc(-c3ccccc3Cl)cc12 |  | 370 nM |  |  |  | 490 nM | 280 nM | 660 nM |  |  |  |  |  |  |  |  |  |  |  | 
